Measured values taken from ChEMBL document CHEMBL4665691, “Callicarpins, Two Classes of Rearranged ent-Clerodane Diterpenoids from Callicarpa Plants Blocking NLRP3 Inflammasome-Induced Pyroptosis” (J Nat Prod, 2020).

Tested on: J774.A1
Test: Cytotoxicity against mouse J774.A1 cells by LDH release assay
Type: functional, cell-based

| SMILES | IC50 (Mus musculus, J774.A1) [µM] | IC50 (j774.a1) [µM] |
| --- | --- | --- |
| C[C@@H]1CC[C@]2(C)[C@H](CC(=O)[C@H]2C)[C@@]1(C)C[C@H](O)C1=CC(=O)OC1O (some centres not stated) | 1.4 | – |
| CC1=CCC[C@@H]2[C@@](C)(C[C@H](O)C3=CC(=O)OC3O)[C@H](C)CC[C@@]12C (some centres not stated) | 3.6 | – |
| CC(=O)O[C@@H]1CC[C@@H]2[C@@](C)(C[C@H](O)C3=CC(=O)O[C@@H]3OC(C)=O)[C@H](C)CC[C@@]2(C)C(=O)C1 | 5.3 | – |
| COC(=O)[C@H]1C[C@@H]2[C@@](C)(C[C@H](O)C3=CC(=O)OC3O)[C@H](C)CC[C@@]2(C)[C@@]1(C)O (some centres not stated) | 1.5 | – |
| C[C@@H]1CC[C@]2(C)[C@H](C[C@H](C(=O)O)[C@]2(C)O)[C@@]1(C)C[C@H](O)C1=CC(=O)OC1O (some centres not stated) | 24.7 | – |
| C[C@@H]1CC[C@@]2(C)C(=O)C[C@H](O)CC[C@@H]2[C@@]1(C)C[C@H](O)C1=CC(=O)OC1O (mixture of isomers) | 25.4 | – |
| C[C@@H]1CC[C@@]2(C)C(=O)C[C@@H](O)CC[C@@H]2[C@@]1(C)C[C@H](O)C1=CC(=O)OC1O (stereo in doubt; 1) | – | 16.6 |
